Here are results for 102 compounds from ChEMBL document CHEMBL3507680, “University of Dundee, Gates Library screen for HepG2 cell viability”.

SMILES strings stand for the structures.

This data set is described as follows: Human HepG2 cell viability assay in 384 well format. It is filed as toxicity, cell-based. Further details: dose 125 nL, time 70.5 hour; concentration not given beside the values. The settings on record: HepG2 cells, read-out: Inhibition.
With `CCOc1ccccc1CNC(=O)N1CCC(n2cncn2)CC1`, the cytotoxicity at 70.5 h was -11.8%. In the case of `Cc1cnn(CCC(=O)N2CCCN(c3ccccc3C#N)CC2)c1` it was -1.64%; in that of `Cc1ccc(N2CCCC(NCC(=O)NC(C3CC3)C3CC3)C2)nn1` (configuration not stated), -8.53%.

Regarding `CCNC(c1ccc(CC)cc1)c1cccnc1` (configuration not stated), the cytotoxicity at 70.5 h amounted to 7.31%.

Consider `CCNC(c1ccc(Cl)cc1)c1cccnc1` (configuration not stated), for which the cytotoxicity at 70.5 h was 34.5%. For the compound `CC(=O)N1CCCN(C(=O)C(C)n2cncn2)CC1` (configuration not stated), the cytotoxicity at 70.5 h was -3.53%. For `CN(C)CCN1CCC(CNCc2c[nH]nc2C(C)(C)C)CC1`, the cytotoxicity at 70.5 h was 28.4%. In the case of `COCCN1CCC(CNCc2c[nH]nc2C(C)(C)C)CC1` it was 24.7%. As for `Cc1ccc(NC2CCN(C(=O)c3ccc(C#N)cc3)CC2)nn1`, the figure is -7.94%; as for `CCOCCN1CCN(CC(=O)N2CCCC2)CC1CC` (configuration not stated), -4.43%. In the case of `Cc1ccc(N2CCCC(NCc3cnc(C)s3)C2)nn1` (configuration not stated), the cytotoxicity at 70.5 h was -1.22%. As to `CCOCCN1CCN(CC(=O)N2CCC2)CC1CC` (configuration not stated), the cytotoxicity at 70.5 h was -7.02%. As for `O=C(NCCc1ccccc1)NCC(O)c1cccc(F)c1` (configuration not stated), the figure is -3.34%. As to `COc1cc(C(=O)NCc2ccc3c(c2)CCCN3C)cc(OC)c1Br`, the cytotoxicity at 70.5 h was -8.61%. As for `CCOc1ncccc1CNCc1c(C(C)C)nn(C)c1N(C)C`, the figure is 57.6%; as for `CCN(Cc1cccc(F)c1)Cn1nc(C)c2c(C)onc2c1=O`, -8.8%; as for `CSc1ccc(CNC(=O)NCC(O)c2cccc(F)c2)cc1` (configuration not stated), -7.86%. In the case of `Fc1ccc(-c2nc(CN3CCOC(Cn4cccn4)C3)co2)cc1` (configuration not stated) it was -5.89%. Regarding `O=c1[nH]c(CN2CCOC(Cn3cccn3)C2)nc2ccccc12` (configuration not stated), the cytotoxicity at 70.5 h is -6.2%. As for `Cc1cnc(C(=O)NCc2ccc3c(c2)CCCN3C)cn1`, the cytotoxicity at 70.5 h is -4.01%. In the case of `Cc1cnn(CC2CN(Cc3nc4ccccc4s3)CCO2)c1` (configuration not stated) it was -4.94%; in that of `CN1CCCc2cc(CNC(=O)c3ccc(-n4cnnc4)cc3)ccc21`, -2.87%. Regarding `N#Cc1ccc(CC(=O)N2CCC(Nc3cccnn3)CC2)cc1`, the cytotoxicity at 70.5 h was -5.35%.

As for `Cc1ccc(CC(=O)N2CCC(Nc3ccc(C)nn3)CC2)cn1`, the cytotoxicity at 70.5 h was -1.2%. As to `Cc1sc(-c2ccco2)nc1C(=O)N1CCCC1Cn1cccn1` (configuration not stated), the cytotoxicity at 70.5 h is -1.73%. `O=C(c1cnc(-c2cnccn2)s1)N1CCCC1Cn1cccn1` (configuration not stated): the cytotoxicity at 70.5 h was -3.28%. As for `Cc1nc(C)n(C2CCCN(C(=O)c3cn4cccnc4n3)C2)n1` (configuration not stated), the figure is 2.73%; as for `CC(C)c1nccn1C1CCCN(C(=O)c2cn3cccnc3n2)C1` (configuration not stated), -3.43%. Regarding `CN1CCCc2cc(CNC(=O)c3cc[n+]([O-])cc3)ccc21`, the cytotoxicity at 70.5 h was -6.17%.

In the case of `CC(C)COCCCNC(=O)NCC(O)c1cccc(F)c1` (configuration not stated), the cytotoxicity at 70.5 h is -0.106%. In the case of `CCOc1cccc2c1OCC(C(=O)NS(=O)(=O)c1cccs1)=C2` it was -9.43%; in that of `COCCCN(CCOC)Cc1nc2c(cnn2C)c(=O)[nH]1`, -12.6%; in that of `CSCc1ccc(C(=O)N2CCN(CC(C)O)CC2)cc1` (configuration not stated), -15.3%. For the compound `O=C(CCOCC(F)(F)F)N1CCCC1c1noc(C2CC2)n1` (configuration not stated), the cytotoxicity at 70.5 h was -8.98%. In the case of `CCN(Cc1ccc2c(c1)OCCO2)C(=O)NCc1nncn1CC` it was -13.5%; in that of `Cc1nc(CN(C)C2CCN(CCn3cc(C#N)cn3)C2)no1` (configuration not stated), 8.59%. As for `O=C(COCc1ccccc1)N1CCCC1c1noc(C2CC2)n1` (configuration not stated), the figure is -7.31%; as for `CC(C)c1nc(CN2CCOC(CNc3cccnn3)C2)cs1` (configuration not stated), -8.93%. In the case of `CC(C)CN(CCc1ccccc1)Cc1nc2c(cnn2C)c(=O)[nH]1` it was -3.12%. On to `COCCN(CCOC)Cc1nc2c(cnn2C)c(=O)[nH]1`, for which the cytotoxicity at 70.5 h stood at 7%. `CC(NC(=O)c1cccs1)C(=O)NCc1cccnc1N1CCCCC1` (configuration not stated): the cytotoxicity at 70.5 h is -16.1%. As for `Cc1ncsc1C(=O)NC1CCN(Cc2cccnc2)CC1`, the figure is 0.341%. In the case of `CCc1nnc2n1CCN(CCS(=O)(=O)c1ccccc1)C2` it was -11.4%; in that of `Cc1nnc2n1CCN(CCS(=O)(=O)c1ccccc1)C2`, -9.06%.

As for `Cc1nc(C)n(CC2CCCCN2CC(=O)NC2CCOCC2)n1` (configuration not stated), the cytotoxicity at 70.5 h was -5.93%. For `CCc1nc(CN2CCCN(C(=O)C(C)n3cncn3)CC2)cs1` (configuration not stated), the cytotoxicity at 70.5 h was -8.34%. As for `CCc1nc(CN2CCCN(C(=O)C(C)n3ccnc3)CC2)cs1` (configuration not stated), the figure is -9%. In the case of `CC(NC(=O)NCc1cccnc1N1CCCCC1)c1nccs1` (configuration not stated) it was -4.81%. In the case of `CC(O)CN1CCN(C(=O)c2ccn(-c3cccc(Cl)c3)n2)CC1` (configuration not stated) it was 13.7%. Take `CSCc1cccc(C(=O)N2CCN(CC(C)O)CC2)c1` (configuration not stated): the cytotoxicity at 70.5 h was -14.6%.

On to `COc1ccc(C(C)N2CCN(Cc3nccn3C)CC2)cc1Cl` (configuration not stated), for which the cytotoxicity at 70.5 h is -6.8%. Turning to `Cc1cc(C)n(C2CN(CC(O)COc3ccc(F)cc3)C2)n1` (configuration not stated), the cytotoxicity at 70.5 h was -16.7%. For `Cc1cccnc1CNc1cc(N2CCCC2CO)ncn1` (configuration not stated), the cytotoxicity at 70.5 h is -8.44%. On to `Cn1c(C2CC2)nc2c1CCN(CCOc1ccc(C#N)cc1)C2`, for which the cytotoxicity at 70.5 h was -9.07%.

As for `CC(C)c1cc(NC(=O)CN2CCc3c(nc(C(C)C)n3C)C2)on1`, the cytotoxicity at 70.5 h is -15%. In the case of `CCc1nc(CN(C)C2CCN(CCNS(=O)(=O)CC)C2)no1` (configuration not stated) it was 46.2%; in that of `FC(F)(F)Cn1ccnc1CN1CCCC1c1noc(C2CC2)n1` (configuration not stated), -0.904%. In the case of `CN(Cc1nnc(C2CC2)o1)C1CCN(CCCc2cnn(C)c2)C1` (configuration not stated) it was 6.71%.

As for `CCc1nc(CN(C)C2CCN(CCS(C)(=O)=O)C2)no1` (configuration not stated), the cytotoxicity at 70.5 h stood at 2.72%. In the case of `CCc1nc(CN(C)C2CCN(CCc3ccccn3)C2)no1` (configuration not stated) it was 3.72%; in that of `Fc1cccc(-c2nc(CN3CCn4c(nnc4C4CC4)C3)co2)c1`, -8.24%; in that of `Cc1nn2cccnc2c1C(=O)N1CCCC(n2ccnc2)C1` (configuration not stated), -4.78%.

On to `CC(C)c1noc(CCC(=O)NCC2CCS(=O)(=O)C2)n1` (configuration not stated), for which the cytotoxicity at 70.5 h stood at 1.64%.

As for `O=C(NCc1cc[nH]n1)NCC(O)c1ccc(F)cc1F` (configuration not stated), the cytotoxicity at 70.5 h was -9.36%. In the case of `COc1ccc(C(C)NC(=O)NCCCn2cncn2)cc1F` (configuration not stated) it was -4.51%; in that of `NC(=O)NC(=O)CCN1CCCN(c2nccs2)CC1`, 0.668%; in that of `CCOc1ccc(CN2CCN(C(=O)c3ccc(C)n3C)CC2)cc1`, -0.122%. As for `Cc1noc(Cl)c1CCC(=O)N1CCc2sccc2C1`, the figure is -1.52%. In the case of `Cc1ncc2c(n1)CN(CCCc1nc3ccccc3o1)CC2` it was -0.537%; in that of `CC(C)c1nnc2n1CCN(C(=O)c1ccnc(N(C)C)c1)C2`, -0.0863%; in that of `Cc1ccc(NC2CCN(C(=O)c3cccc4ncccc34)CC2)nn1`, 1.63%. On to `COc1cc(S(=O)(=O)N2CCc3ccc(F)cc32)cc(C(=O)O)c1OC`, for which the cytotoxicity at 70.5 h was 10.1%. In the case of `O=C(NCCCNc1ccccc1)c1scnc1Cl` it was 4.41%; in that of `Fc1ccc(-c2nnc(CN3CCn4c(nnc4C4CC4)C3)o2)cc1`, -5.47%; in that of `Cc1ccc(C(N)c2cccc(S(C)(=O)=O)c2)cc1` (configuration not stated), 4.98%. In the case of `COc1ccc(C(N)c2cccc(S(C)(=O)=O)c2)cc1` (configuration not stated) it was -1.22%.

Take `COc1cc(S(=O)(=O)N2CCCc3ccccc32)cc(C(=O)O)c1OC`: the cytotoxicity at 70.5 h is 5.62%. In the case of `c1csc(-c2nc(CN3CCn4c(nnc4C4CC4)C3)co2)c1` it was -13.1%; in that of `Cc1cc(S(=O)(=O)N2CCc3ccc(F)cc32)cc(C(=O)O)c1C`, 6.28%; in that of `CC(C)(C)c1nnc(CN2CCn3c(nnc3C3CC3)C2)o1`, -0.488%. In the case of `Cc1nn2cccnc2c1C(=O)N1CCCC(Nc2ccccc2)C1` (configuration not stated) it was -0.861%. Take `O=C(NCc1cc[nH]n1)N(CCCO)C1CCc2ccccc21` (configuration not stated): the cytotoxicity at 70.5 h is -0.509%.

With `Cc1cnc(CN2CCCC2c2noc(C)n2)cn1` (configuration not stated), the cytotoxicity at 70.5 h is 5.04%. As for `Cc1ccc(NC2CCN(C(=O)c3cc(C(N)=O)cs3)CC2)nn1`, the figure is 11.5%; as for `Cc1cnn(CC2CCCCN2CCCS(N)(=O)=O)c1` (configuration not stated), 33.5%; as for `Cc1cc(C)n(CC2CCCCN2CCCS(N)(=O)=O)n1` (configuration not stated), 14%. In the case of `Cc1cnc(CN(C)C2CCN(Cc3nc4ccccc4n3C)C2)o1` (configuration not stated) it was 25.2%; in that of `Cc1ccc(CNC(=O)CN2CCCC(Cn3cncn3)C2)s1` (configuration not stated), 22.1%; in that of `Cc1ccccc1CC(=O)N(C)C1CCCC1`, -4.43%. In the case of `COc1ccc(OCCN(C)C(=O)NC(C)c2nncn2C)cc1` (configuration not stated) it was -1.05%. Take `CC(NC(=O)N(C)CCCOc1ccc(F)cc1)c1nncn1C` (configuration not stated): the cytotoxicity at 70.5 h was -1.45%. For the compound `COc1ncccc1CNC(=O)NCCNC(=O)c1ccco1`, the cytotoxicity at 70.5 h is 0.312%. As for `CC(C)Oc1ncccc1CNC(=O)c1ccco1`, the figure is 1.27%; as for `CCS(=O)(=O)N(C)CC(=O)Nc1ccc(Br)cn1`, 4.52%; as for `O=C(Cc1ccc(-n2cccn2)cc1)N1CCN2CCCCC2C1` (configuration not stated), 3.24%. In the case of `CC(=O)NC1CCCN(C(=O)NCc2cccnc2N(C)C)C1` (configuration not stated) it was 4.39%; in that of `Cc1ccc(-c2nc(CCNC(=O)CCN3CCOC3=O)co2)cc1`, -2.58%; in that of `Cn1ccnc1CN1CCN(Cc2noc(-c3ccccc3)n2)CC1`, -4.14%. Take `Cc1ccc(CCC(=O)N2CCCC(n3cncn3)C2)c(C)c1` (configuration not stated): the cytotoxicity at 70.5 h was -3.58%. As for `CCNc1cc2c(nn1)CCN(C(=O)c1ccc(CNC(C)=O)o1)C2`, the figure is -5.9%.

`CCc1nc(C2CCCN2C(=O)c2nc(C)n3ccccc23)no1` (configuration not stated): the cytotoxicity at 70.5 h is -7.79%. As for `CS(=O)(=O)c1cccc(C(N)c2ccc(F)c(F)c2)c1` (configuration not stated), the figure is -4.97%.
